Source: patent publication US7968530B2 (priority 2005, dated 2011)
Like-named read-outs stand apart in the source and are kept apart here.

Assays:
Phytophthora infestans [1] = format: in vivo
Plasmopara viticola [2] = assay: Preventive fungicidal activity against peronospora of vines, sprayed vine leaves (Example 7); format: in vivo; details: 7-day preventive, vine cv. Dolcetto, scale 0 (completely infected) to 100 (healthy plant); for Activity 500 ppm: 500 ppm as equivalent phosphorous acid; for Activity 1000 ppm: 1000 ppm as equivalent phosphorous acid
Procedure: Determination of the Fungicidal Activity Against Peronospora of Vines (Plasmopara viticola).
Vine leaves (cultivar Dolcetto), grown in vases in a conditioned environment (20±1° C., 70% relative humidity) are treated by spraying both sides of the leaves with compounds 1 and 2, dispersed in a hydroacetone solution at 20% by volume in acetone.
After remaining 24 hours in a conditioned environment, the plants were sprayed on both sides of the leaves with an aqueous suspension of conidia of Plasmopara viticola (20,000 conidia per cm^3).
The plants are kept in a humidity saturated environment at 21° C. for the incubation period of the fungus.
At the end of this period (7 days), the fungicidal activity is evaluated according to an evaluation percentage scale from 0 (completely infected plant) to 100 (healthy plant).

Plasmopara tabacina = assay: 1-day curative fungicidal activity of fungicidal mixtures against peronospora of tobacco (Example 11); format: in vivo
Procedure: Determination of the Fungicidal Activity of Fungicidal Mixtures Against Peronospora of Tobacco (Plasmopara tabacina).
Leaves of tobacco plants (cultivar Barley), grown in vases in a conditioned environment (20±1° C.), 70% relative humidity) were infected with an aqueous solution of spores of Plasmopara tabacina (200,000 conidia per cm^3).
(§1) After remaining 24 hours in a conditioned environment, both sides of the leaves were sprayed with the fungicidal mixtures under examination dissolved in a hydroacetone solution at 20% of acetone (vol./vol.).
After drying, the plants were transferred for the incubation period of the fungus (6 days) to a conditioned environment at 70% relative humidity and 24° C.

Phytophthora infestans [3] = details: 1-day curative, potato Primura, scale 100 healthy to 0 infected
Plasmopara viticola [4] = assay: 1-day curative fungicidal activity of fungicidal mixtures against peronospora of vines (Example 10); format: in vivo
Procedure: Leaves of vines (cultivar Dolcetto), grown in vases in a conditioned environment (20±1° C.), 70% relative humidity) were infected with an aqueous suspension of spores of Plasmopara viticola (200,000 conidia per cm^3).
as §1
After drying, the plants were transferred for the incubation period of the fungus (6 days) to a conditioned at 70% relative humidity and 24° C.

[5] = 1575 ppm as equivalent phosphorous acid
[6] = compound alone at 1575 ppm as equivalent phosphorous acid, 1-day curative, potato, scale 0-100

With `CN(C)CCCO` [3-dimethylamine-1-propanol] the “Activity (y)” value (Phytophthora infestans [1]; in vivo) was 25.

In the case of `C[N+](C)(C)CCO.O=C([O-])O` [Choline bicarbonate], the “Activity 500 ppm” value (Plasmopara viticola [2]) is reported as 75 and the “Activity 1000 ppm” value (Plasmopara viticola [2]) is reported as 84.

In the case of `C[N+](C)(C)CCO.[Cl-]` [Choline chloride], the “Activity (y)” value (Plasmopara tabacina; compound alone at 2047 ppm, 1-day curative, tobacco, scale 0-100) is reported as 10, the “Activity (y)” value (Phytophthora infestans [1]; compound alone at 2730 ppm, 1-day curative, potato, scale 0-100) is reported as 20 and the Activity (Phytophthora infestans [3]; 2690 ppm (quantity of choline contained in Compound No 2)) is reported as 15 (2690 ppm*). The “Activity (y)” value (Plasmopara viticola [4]; compound alone at 2047 ppm, 1-day curative, vine, scale 0-100) was 20, the “Activity 500 ppm” value (Plasmopara viticola [2]) was 35 and the “Activity 1000 ppm” value (Plasmopara viticola [2]) was 57.

`O=[PH]([O-])[O-].[K+].[K+]` [Compound K2HPO3, K2HPO3, reference compound] was tested, and the Activity (Phytophthora infestans [3]; [5]) was 40 (1575 ppm**), the “Activity 500 ppm” value (Plasmopara viticola [2]) was 45 and the “Activity 1000 ppm” value (Plasmopara viticola [2]) was 80.

`CN(C)CCO` [N,N-dimethylethanolamine] was tested, and the “Activity (y)” value (Plasmopara tabacina; in vivo) was 5, the “Activity (y)” value (Phytophthora infestans [1]; in vivo) was 30 and the “Activity (y)” value (Plasmopara viticola [4]; in vivo) was 25.

Acid Choline Phosphite [Compound 2] was tested, and the “Activity (y)” value (Phytophthora infestans [1]; [6]) was 65, the Activity (Phytophthora infestans [3]; [5]) was 65 (1575 ppm**) and the Activity (Phytophthora infestans [3]; 1575 ppm as equivalent phosphorous acid, […]) was 65. For the same compound, the “Activity 500 ppm” value (Plasmopara viticola [2]) was 85 and the “Activity 1000 ppm” value (Plasmopara viticola [2]) was 95.

For Neutral Choline Phosphite [Compound 1], the “Activity (y)” value (Phytophthora infestans [1]; [6]) was 65, the “Activity 500 ppm” value (Plasmopara viticola [2]) was 90 and the “Activity 1000 ppm” value (Plasmopara viticola [2]) was 100.
